# Measured values: the supplement of paper PMC4628005
# Key:
# Conditions in all cases: drug exposure time: 96 h
# 17-AAG = compound: C=CCNC1=C2C[C@@H](C)C[C@H](OC)[C@H](O)[C@@H](C)/C=C(\C)[C@H](OC(N)=O)[C@@H](OC)/C=C\C=C(/C)C(=O)NC(=CC1=O)C2=O [17-AAG]
# Protocol: (§1)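 Same SRB 96 h IC50 screen on breast cancer cell lines (RPMI 1640 + 10% FBS, collagen I-coated 96-well plates, triplicates, 12 dilutions), for drugs with a different dose range: Bortezomib up to 2e-5 M; Sirolimus and 17-AAG up to 2e-6 M. Sirolimus values at the 2e-6 M top dose are censored.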
# Bortezomib = compound: CC(C)C[C@H](NC(=O)[C@H](Cc1ccccc1)NC(=O)c1cnccn1)B(O)O [Bortezomib]
# Protocol: as §1
# Sirolimus = compound: CO[C@H]1C[C@@H]2CC[C@@H](C)[C@@](O)(O2)C(=O)C(=O)N2CCCC[C@H]2C(=O)O[C@H]([C@H](C)C[C@@H]2CC[C@@H](O)[C@H](OC)C2)CC(=O)[C@H](C)/C=C(\C)[C@@H](O)[C@@H](OC)C(=O)[C@H](C)C[C@H](C)/C=C/C=C/C=C/1C [Sirolimus]
# Protocol: as §1
# Quisinostat = compound: Cn1cc(CNCC2CCN(c3ncc(C(=O)NO)cn3)CC2)c2ccccc21 [Quisinostat]
# Protocol: (§2)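 Breast cancer cell lines were grown in RPMI 1640 with 10% FBS on collagen I-coated 96-well plates and treated for 96 h (from 24 h after seeding) with 12 dilutions per drug, in triplicate. Growth was read by sulforhodamine B total-protein staining (absorbance 570 nm) relative to diluent control, and IC50 was calculated. The top dose was 1e-5 M for most drugs; Bortezomib went to 2e-5 M and Sirolimus and 17-AAG to 2e-6 M[…].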
# Paclitaxel = compound: CC(=O)O[C@H]1C(=O)[C@@]2(C)[C@H]([C@H](OC(=O)c3ccccc3)[C@]3(O)C[C@H](OC(=O)[C@H](O)[C@@H](NC(=O)c4ccccc4)c4ccccc4)C(C)=C1C3(C)C)[C@]1(OC(C)=O)CO[C@@H]1C[C@@H]2O [Paclitaxel]
# Protocol: as §2
# Sorafenib = compound: CNC(=O)c1cc(Oc2ccc(NC(=O)Nc3ccc(Cl)c(C(F)(F)F)c3)cc2)ccn1 [Sorafenib]
# Protocol: as §2
# Doxorubicin = compound: COc1cccc2c1C(=O)c1c(O)c3c(c(O)c1C2=O)C[C@@](O)(C(=O)CO)C[C@@H]3O[C@H]1C[C@H](N)[C@H](O)[C@H](C)O1 [Doxorubicin]
# Protocol: as §2
# Decitabine = compound: Nc1ncn([C@H]2C[C@H](O)[C@@H](CO)O2)c(=O)n1 [Decitabine]
# Protocol: as §2
# Tipifarnib = compound: Cn1cncc1[C@@](N)(c1ccc(Cl)cc1)c1ccc2c(c1)c(-c1cccc(Cl)c1)cc(=O)n2C [Tipifarnib]
# Protocol: as §2
# Erlotinib = compound: C#Cc1cccc(Nc2ncnc3cc(OCCOC)c(OCCOC)cc23)c1 [Erlotinib]
# Protocol: as §2
# Azacitidine = compound: Nc1ncn([C@@H]2O[C@H](CO)[C@@H](O)[C@H]2O)c(=O)n1 [Azacitidine]
# Protocol: as §2
# ARQ197 = compound: O=C1NC(=O)[C@@H](c2cn3c4c(cccc24)CCC3)[C@@H]1c1c[nH]c2ccccc12 [ARQ197]
# Protocol: as §2
# MI-219 = compound: CC(C)(C)C[C@H]1N[C@@H](C(=O)NCC[C@H](O)CO)[C@H](c2cccc(Cl)c2)[C@@]12C(=O)Nc1cc(Cl)c(F)cc12 [MI-219]
# Protocol: as §2
# Tamoxifen = compound: CC/C(=C(\c1ccccc1)c1ccc(OCCN(C)C)cc1)c1ccccc1 [Tamoxifen]
# Protocol: as §2
# Vorinostat = compound: O=C(CCCCCCC(=O)Nc1ccccc1)NO [Vorinostat]
# Protocol: as §2
# 5-Fluorouracil = compound: O=c1[nH]cc(F)c(=O)[nH]1 [5-Fluorouracil]
# Protocol: as §2
# Serdemetan = compound: c1ccc2c(CCNc3ccc(Nc4ccncc4)cc3)c[nH]c2c1 [Serdemetan]
# Protocol: as §2
# Vandetanib = compound: COc1cc2/c(=N/c3ccc(Br)cc3F)nc[nH]c2cc1OCC1CCN(C)CC1 [Vandetanib]
# Protocol: as §2
# Cisplatin = compound: N.N.[Cl][Pt][Cl] [Cisplatin]
# Protocol: as §2
# Mitoxantrone = compound: O=C1c2c(O)ccc(O)c2C(=O)c2c(NCCNCCO)ccc(NCCNCCO)c21 [Mitoxantrone]
# Protocol: as §2
# Brivanib = compound: Cc1cc2c(F)c(Oc3ncnn4cc(OC[C@@H](C)O)c(C)c34)ccc2[nH]1 [Brivanib]
# Protocol: as §2
# Docetaxel = compound: CC(=O)O[C@@]12CO[C@@H]1C[C@H](O)[C@@]1(C)C(=O)[C@H](O)C3=C(C)[C@@H](OC(=O)[C@H](O)[C@@H](NC(=O)OC(C)(C)C)c4ccccc4)C[C@@](O)([C@@H](OC(=O)c4ccccc4)[C@H]21)C3(C)C [Docetaxel]
# Protocol: as §2
# Nutlin-3 = compound: COc1ccc(C2=N[C@@H](c3ccc(Cl)cc3)[C@@H](c3ccc(Cl)cc3)N2C(=O)N2CCNC(=O)C2)c(OC(C)C)c1 [Nutlin-3]
# Protocol: as §2
# Panobinostat = compound: Cc1[nH]c2ccccc2c1CCNCc1ccc(/C=C/C(=O)NO)cc1 [Panobinostat]
# Protocol: as §2
# Gefitinib = compound: COc1cc2ncnc(Nc3ccc(F)c(Cl)c3)c2cc1OCCCN1CCOCC1 [Gefitinib]
# Protocol: as §2
# Belinostat = compound: O=C(/C=C/c1cccc(S(=O)(=O)Nc2ccccc2)c1)NO [Belinostat]
# Protocol: as §2
# Methotrexate = compound: CN(Cc1cnc2nc(N)nc(N)c2n1)c1ccc(C(=O)N[C@@H](CCC(=O)O)C(=O)O)cc1 [Methotrexate]
# Protocol: as §2
# Sunitinib = compound: CCN(CC)CCNC(=O)c1c(C)[nH]c(/C=C2\C(=O)Nc3ccc(F)cc32)c1C [Sunitinib]
# Protocol: as §2
# Dasatinib = compound: Cc1nc(Nc2ncc(C(=O)Nc3c(C)cccc3Cl)s2)cc(N2CCN(CCO)CC2)n1 [Dasatinib]
# Protocol: as §2
# Lapatinib = compound: CS(=O)(=O)CCNCc1ccc(-c2ccc3ncnc(Nc4ccc(OCc5cccc(F)c5)c(Cl)c4)c3c2)o1 [Lapatinib]
# Protocol: as §2
Test System,IC50 (SRB growth assay) (17-AAG) [nM],IC50 (SRB growth assay) (Bortezomib) [nM],IC50 (SRB growth assay) (Sirolimus) [nM],IC50 (SRB growth assay) (Quisinostat) [nM],IC50 (SRB growth assay) (Paclitaxel) [nM],IC50 (SRB growth assay) (Sorafenib) [nM],IC50 (SRB growth assay) (Doxorubicin) [nM],IC50 (SRB growth assay) (Decitabine) [nM],IC50 (SRB growth assay) (Tipifarnib) [nM],IC50 (SRB growth assay) (Erlotinib) [nM],IC50 (SRB growth assay) (Azacitidine) [nM],IC50 (SRB growth assay) (ARQ197) [nM],IC50 (SRB growth assay) (MI-219) [nM],IC50 (SRB growth assay) (Tamoxifen) [nM],IC50 (SRB growth assay) (Vorinostat) [nM],IC50 (SRB growth assay) (5-Fluorouracil) [nM],IC50 (SRB growth assay) (Serdemetan) [nM],IC50 (SRB growth assay) (Vandetanib) [nM],IC50 (SRB growth assay) (Cisplatin) [nM],IC50 (SRB growth assay) (Mitoxantrone) [nM],IC50 (SRB growth assay) (Brivanib) [nM],IC50 (SRB growth assay) (Docetaxel) [nM],IC50 (SRB growth assay) (Nutlin-3) [nM],IC50 (SRB growth assay) (Panobinostat) [nM],IC50 (SRB growth assay) (Gefitinib) [nM],IC50 (SRB growth assay) (Belinostat) [nM],IC50 (SRB growth assay) (Methotrexate) [nM],IC50 (SRB growth assay) (Sunitinib) [nM],IC50 (SRB growth assay) (Dasatinib) [nM],IC50 (SRB growth assay) (Lapatinib) [nM]
BT 20,535,13.9,0.232,8.27,1.79,3780,10.5,> 10000,31.9,6140,1140,511,> 10000,49.4,586,2830,2270,9410,> 10000,10.9,> 10000,0.541,> 10000,7.93,> 10000,197,> 10000,> 10000,> 10000,5800
BT 474,19.5,5.49,0.119,1.85,2.18,3500,–,> 10000,–,1970,> 10000,–,> 10000,4130,376,> 10000,2280,2770,–,23.3,> 10000,0.891,> 10000,3.31,731,191,> 10000,5780,611,> 10000
BT 549,58.4,3.97,0.597,12.4,1.44,6040,–,256,–,6100,> 10000,–,> 10000,7410,764,3720,1260,3410,–,1.88,6300,0.598,> 10000,11.1,> 10000,436,22.4,3290,565,256
CAMA 1,22.7,6.12,0.106,2.87,1.95,5240,21.8,1040,3040,> 10000,5560,424,> 10000,7980,1020,1560,1520,> 10000,> 10000,6.16,> 10000,0.662,> 10000,12.6,> 10000,339,8300,5680,> 10000,4200
HCC 1937,26.7,5.14,5.98,43.9,4.02,6230,–,1930,–,> 10000,> 10000,–,> 10000,5720,1760,5280,1050,4060,–,76.6,> 10000,1.08,> 10000,42.1,> 10000,572,65.5,6000,4730,1930
MDA-MB 231,683,4.43,4.75,16.1,1.49,4270,–,65.7,–,> 10000,> 10000,–,> 10000,9790,1320,2580,474,4800,–,2.65,6480,0.535,> 10000,15.5,> 10000,410,2.1,2520,67.6,65.7
MDA-MB-175 VII,15,8,1.27,14.8,7.47,6470,–,> 10000,–,> 10000,> 10000,–,1360,7370,898,4180,4890,2450,–,12.6,> 10000,6.87,3740,15.2,> 10000,493,595,> 10000,513,> 10000
